From patent US20070191324A1, “Methods for treatment or prophylaxis of aldosterone-mediated pathogenic effects in a subject using an epoxy-steroidal aldosterone antagonist” (priority 1999, published 2007)
Where two headings read alike, the source gives them in different places.

How the values were obtained:
[1] = test system: diabetic type 2 patients with hypertension and microalbuminuria; test: Eplerenone, enalapril and combination in diabetic hypertensives with microalbuminuria, 24 weeks (Examples A-18, D-7); format: in vivo, human
[2] = test system: aortas of cholesterol-fed rabbits; test: Endothelial function in diet induced atherosclerosis, aortic isometric tension and superoxide (Example A-10); format: in vivo, New Zealand white rabbits; settings: 50 mg/kg twice daily by gavage, 6 weeks
Procedure: Methods: New Zealand white rabbits were randomized to four treatment groups. 32 Rabbits were placed on normal (NC) or 1% cholesterol chow (HC) for a duration of 8 weeks. […] Rabbits were euthanized at the end of 8 weeks and the aortas extracted for isometric tension studies and estimation of superoxide (O2^−) generation in vessel segments by lucigenin chemiluminescence (250 μM). Vessels were preconstricted with phenylephrine ([…]) to approximately 50% of peak constriction and dose responses to acetylcholine (Ach) and nitroglycerin (NTG) tested.

[3] = test system: patients uncontrolled with BB or CCB monotherapy; test: Eplerenone co-administration with CCB or beta-blocker, 8 weeks (Example D-10); format: in vivo, human; settings: for Diastolic Blood Pressure Responder Rates, Percentage of Patients Responding: seDBP <90 mmHg or ≧10 mmHg reduction
Procedure: This was a multicenter, double-blind, randomized, placebo-controlled, placebo run-in, parallel-group study. […] The dose was to be increased only once during the study. […] Study assessments at protocol-specified timepoints included BP, heart rate, clinical laboratory analyses, ECG, and concomitant medications. Throughout the study, safety was assessed by routine clinical laboratory analyses, vital signs, physical examinations, 12-lead ECG, and monitoring of adverse events. […] The study was designed to include 60 randomized patients in each group and each cohort.

[4] = test system: captopril-treated saline-drinking SHRSP; test: Angiotensin II-induced renal damage in captopril-treated saline-drinking SHRSP, Protocol 2 (Example A-8); format: in vivo, rat (SHRSP/A3N)
Procedure: Animals. Studies were conducted in accordance with institutional guidelines using male SHRSP/A3N (generations F-75 to F-78), n=37, from our local colony. These animals were bred from NIH stock, derived from the SHRSP/A3N substrain described originally by Okamoto and coworkers (Okamoto K et al. Circ. Res. 34 and 35 (suppl I):I-143-I-153.). All animals were housed in a room maintained on a 12:12-h light:dark-cycle and an ambient temperature of 22±1° C. in the Animal Care Facility at New York Medical College. Rats were weaned at 4 weeks of age and allowed free access to Purina Lab Chow 5001 (Ralston Purina, St. Louis, Mo.) and tap water until the initiation of experimental protocols.
SHRSP were placed on Stroke-Prone Rodent Diet (#39-288, Zeigler Bros Inc., Gardners, Pa.) and 1% NaCl drinking solution ad libitum starting at 8.3 weeks of age. […] Animals were handled and weighed daily. Urine samples were collected for the assessment of proteinuria. Systolic blood pressure and heart rate were measured each week. After 2 weeks of treatment, animals were decapitated, trunk blood was collected into chilled EDTA tubes, and the kidneys were removed, blotted dry, and immediately weighed. Coronal sections of kidney were fixed and later processed for light microscopic evaluation.
Assays and Analyses. Systolic blood pressure and heart rate of awake animals were measured by tail-cuff plethysmography using a Natsume KN-210 manometer and tachometer (Peninsula Laboratories Inc., Belmont, Calif.). Rats were warmed at 37° C. for 10 min and allowed to rest quietly in a Lucite chamber before measurement of blood pressure. Measurements of urine volume were made gravimetrically. Urinary protein concentration was determined by the sulfosalicylic acid turbidity method. Plasma aldosterone was measured by radioimmunoassay using ^125I-aldosterone as a tracer (Coat-a Count Aldosterone, Diagnostic Products Co., Los Angeles, Calif.).
Histology. Kidneys were preserved in 10% phosphate-buffered formalin. Coronal sections (2-3 μm) were stained with hematoxylin and eosin and examined by light microscopy in a blinded fashion as previously described (Stier C T et al. J Pharmacol Exp Ther (1992) 260:1410-1415). Glomerular damage was categorized as ischemic or thrombotic. Ischemic lesions were defined as retraction of glomerular capillary tufts with or without appreciable mesangiolysis. Glomerular thrombotic lesions were defined as any one of a combination of the following: segmental to global fibrinoid necrosis, focal thrombosis of glomerular capillaries, swelling and proliferation of intracapillary (endothelial and mesangial) and/or extracapillary cells (crescents), and expansion of reticulated mesangial matrix with or without significant hypercellularity. […] Vascular thrombotic lesions were defined as any one or a combination of the following: mural fibrinoid necrosis, extravasation and fragmentation of red blood cells, and luminal and/or mural thrombosis. Proliferative arteriopathy was characterized by proliferation of markedly swollen myointimal cells with swollen round to ovoid vesicular nuclei surrounded by mucinous extracellular matrix (“onion skinning”) often resulting in nodular thickening. Vascular damage was expressed as the number of arteries and arterioles with lesions per 100 glomeruli. The presence of casts and tubular (ischemic) retraction and simplification was assessed semiquantitatively.
Statistical Analysis. Significant effects with respect to treatment and time were determined by two-way analysis of variance. Data with only one grouping variable were analyzed statistically by Student's unpaired t tests. When more than two groups were compared, one-way analysis of variance was performed followed by the post-hoc Newman-Keul's multiple comparison test. Data were analyzed using version 2.01 of the GraphPad Prism statistical software package (GraphPad Software Inc., San Diego, Calif.). P<0.05 was considered statistically significant.

[5] = Food effect pharmacokinetic studies, Japan and Ex-Japan (Example A-11); format: in vivo, human; settings: single 100 mg; for AUC(0-inf) / Cmax / AUC: male, human, in vivo, oral, 100 mg; for AUC: read-out: AUC (0-lqc)
Procedure: The […] trials included (i) a single dose tolerability trial, and (ii) a multiple dose tolerability trial, and (iii) a food effect study.
Both single dose and multiple dose tolerability trials were conducted in Japan utilizing healthy male Japanese subjects. […] Six subjects who received the 100 mg dose also participated in the food effect treatment arm of the single dose tolerability trial.
Table A-11C contains the geometric least squares means for the fed and fasting regimens, the ratios of means and the corresponding 95% confidence intervals (CI) for the ratios of the means for the Japan and Ex-Japan food effect trials.
Each panel consisted of six subjects who were given eplerenone and two subjects who were given placebo.

[6] = eplerenone 50-100 mg QD, 8 weeks
[7] = captopril 50 mg/kg/d, angiotensin II 25 ng/min, eplerenone 100 mg/kg/d, 2 weeks

COC(=O)[C@@H]1CC2=CC(=O)CC[C@]2(C)[C@@]23O[C@@H]2C[C@@]2(C)[C@@H](CC[C@@]24CCC(=O)O4)[C@H]13 [Eplerenone, Pregn-4-ene-7,21-dicarboxylic acid, 9,11-epoxy-17-hydroxy-3-oxo-, γ-lactone, methyl ester, (7α, 11α, 17β)-]
patients withdrawn for hyperkalemia ([1]; 24 weeks): 6 patients | reduction in microalbuminuria (UACR) ([1]; 24 weeks): greater reduction in microalbuminuria than enalapril | subjects with elevated K+ (≧6.0 mEq/L) ([1]; 24 weeks): 8 subjects | patients requiring addition of hydrochlorothiazide (HCTZ) ([1]; EPL 200 mg QD, ENAL 40 mg QD, EPL 200 mg/ENAL 10 mg, 24 weeks): 36/84 | Adjusted mean change ΔDBP (Week 8-baseline) ([1]; Week 8): −10.2 | Adjusted mean change ΔSBP (Week 8-baseline) ([1]; Week 8): −13.5 | Adjusted mean change ΔDBP (Week 24-baseline) ([1]; Week 24): −13.2 | Adjusted mean change ΔSBP (Week 24-baseline) ([1]; Week 24): −19.5 | tolerability ([1]; in vivo): well tolerated | ED50 Ach ([2]; 1% cholesterol chow): 68 nM | ED50 NTG ([2]; 1% cholesterol chow): 10 nM | ED50 Ach ([2]; normal chow): 32 nM | ED50 NTG ([2]; normal chow): 5.7 nM | Diastolic Blood Pressure Responder Rates, Percentage of Patients Responding ([3]; BB Cohort, Week 2): 48 (69.6%) | Diastolic Blood Pressure Responder Rates, Percentage of Patients Responding ([3]; BB Cohort, Week 4): 53 (76.8%) | Diastolic Blood Pressure Responder Rates, Percentage of Patients Responding ([3]; BB Cohort, Week 6): 56 (81.2%) | Diastolic Blood Pressure Responder Rates, Percentage of Patients Responding ([3]; BB Cohort, Week 8): 52 (75.4%) | Diastolic Blood Pressure Responder Rates, Percentage of Patients Responding ([3]; CCB Cohort, Week 2): 40 (60.6%) | Diastolic Blood Pressure Responder Rates, Percentage of Patients Responding ([3]; CCB Cohort, Week 4): 51 (76.1%) | Diastolic Blood Pressure Responder Rates, Percentage of Patients Responding ([3]; CCB Cohort, Week 6): 55 (82.1%) | Diastolic Blood Pressure Responder Rates, Percentage of Patients Responding ([3]; CCB Cohort, Week 8): 48 (71.6%) | safety and tolerability ([3]; add on anti-hypertensive agent): safe and well tolerated | responders (seDBP <90 mmHg or ≧10 mmHg reduction from Baseline), CCB cohort ([3]; each timepoint, vs placebo): more patients who received eplerenone responded to treatment | responders (seDBP <90 mmHg or ≧10 mmHg reduction from Baseline), BB cohort ([3]; each timepoint, vs placebo (p ≦0.011)): significantly greater proportions of patients who received eplerenone responded to treatment | DBP and SBP, addition to a BB [3, 6]: efficacious in reducing DBP and SBP | SBP, addition to a CCB [3, 6]: efficacious in reducing SBP | Glomerular damage, Thrombotic [4, 7]: 1.0 ± 0.3 lesions/100 glomeruli | plasma aldosterone concentration [4, 7]: 231 ± 37 pg/mL | renal damage ([4]; captopril + angiotensin II 25 ng/min, with eplerenone 100 mg/kg/d or vehicle): 3±1% | AUC (0-inf) Mean Ratio fed/fasted ([5]; Ex-Japan): 1.079 | AUC (0-inf) Mean Ratio fed/fasted ([5]; Japan): 1.218 | AUC(0-inf) ([5]; Ex-Japan, Fasted): 9060 ng·h/mL | Cmax ([5]; Ex-Japan, Fasted): 1620 ng/mL | AUC ([5]; Ex-Japan, Fasted): 8940 ng·h/mL | AUC(0-inf) ([5]; Ex-Japan, Fed): 9780 ng·h/mL | Cmax ([5]; Ex-Japan, Fed (high fat meal)): 1320 ng/mL | AUC ([5]; Ex-Japan, Fed): 9650 ng·h/mL | AUC(0-inf) ([5]; Japan, Fasted): 8970 ng·h/mL | Cmax ([5]; Japan, Fasted): 1310 ng/mL | AUC(0-inf) ([5]; Japan, Fed): 10900 ng·h/mL | Cmax ([5]; Japan, Fed): 1520 ng/mL
